From the NIST ThermoML archive (doi:10.1016/j.jct.2008.06.009)

Assay: xn = mol fraction of the nth substance listed
Details: 450 K, Liquid, Bellows volumetry

N [ammonia] + O
mass density [kg/m3]
Details | x1 = 0.1048 | x1 = 0.2046 | x1 = 0.3807 | x1 = 0.5565 | x1 = 0.7008 | x1 = 0.801 | x1 = 0.9102 | x1 = 1
10000 kPa | 843.9 | 796.9 | 708.1 | 608.5 | – | – | – | –
20000 kPa | 850.4 | 804.3 | 718.8 | 625.9 | 534.7 | 458.5 | – | –
30000 kPa | 856.6 | 811 | 728.1 | 639.8 | 557.7 | 495.6 | 422 | 355.3
40000 kPa | 862.7 | 817.8 | 736.8 | 651.6 | 575.2 | 519.2 | 457.5 | 403.7
50000 kPa | 868.5 | 823.8 | 744.9 | 662.2 | 589.4 | 537.4 | 481.3 | 433.4
60000 kPa | 873.9 | 829.6 | 751.5 | 671.3 | 601.8 | 552.2 | 499.7 | 455.2
70000 kPa | 879.1 | 835.4 | 758.3 | 680.1 | 612.5 | 564.9 | 514.8 | 472.6
80000 kPa | 884.2 | 840.9 | 765.1 | 687.8 | 622.2 | 576 | 527.7 | 487.4
90000 kPa | 889.2 | 845.9 | 771.1 | 695.3 | 631.2 | 586.2 | 539.1 | 500.2
100000 kPa | 893.9 | 850.6 | 777.1 | 702.2 | 639.2 | 595.2 | 549.2 | 511.7
120000 kPa | 902.7 | 860.3 | 788.1 | 714.8 | 654 | 611.5 | 566.9 | 531.4
140000 kPa | 911.3 | 868.9 | 798.6 | 726.2 | 666.9 | 625.9 | 582.2 | 548.2
160000 kPa | 919.5 | 877.1 | 807.9 | 736.6 | 678.7 | 638.7 | 595.6 | 563.1
180000 kPa | 927 | 885.1 | 817.2 | 746.2 | 689.4 | 650.1 | 607.8 | 576.3
200000 kPa | 934.3 | 892.2 | 825.3 | – | – | – | – | –
